Reference: article PMC12285096, “Tirzepatide mitigates Stroke-Induced Blood-Brain barrier disruption by modulating Claudin-1 and C/EBP-α pathways” (Molecular Medicine, 2025)

Tests used:
[1] = system: blood-brain barrier of MCAO mice; assay: BBB permeability assay, 14C-sucrose influx in mice; format: in vivo, mouse; conditions: for BBB permeability (14C-sucrose), relative to Sham = 100: C/EBP-α experiment, MCAO 272.1%, Fig. 5B; for 14C-sucrose influx rate (Ki), right cerebral hemisphere: n = 6, mean ± SD
Source text: To evaluate the therapeutic function of TZP against IS, four groups were divided: Sham, TZP, MCAO, and MCAO + TZP groups. In the Sham and MCAO groups, normal saline was intraperitoneally administered to sham-operated and MCAO-operated wide-type (WT) mice once a week for 8 weeks, respectively. In the TZP and MCAO + TZP groups, sham-operated and MCAO-operated WT mice were intraperitoneally administered with 10 nmol/kg TZP once a week for 8 weeks, respectively. To confirm the involvement of C/EBPα in the function of TZP, four groups were divided: Sham, MCAO, MCAO + TZP, and MCAO + C/EBP-α-/- + TZP. Administrations in the Sham, MCAO, and MCAO + TZP groups were described above. MCAO-operated C/EBP-α-/- mice in the MCAO + C/EBP-α-/- + TZP group received an intraperitoneal injection of 10 nmol/kg TZP every week for eight weeks. ^14C-sucrose (1 µCi, i.v.) was administered, and brain uptake was measured after 10 min. The influx rate (Ki, µL/g/min) was calculated as [^14C-sucrose]brain (dpm/g)/[^14C-sucrose]plasma (dpm/mL) × time (min).

in vivo = conditions: mouse, ip, 10 nmol/kg
Protocol: TZP concentrations were measured in plasma and brain from Sham, TZP, MCAO, and MCAO + TZP groups (n = 6 per group) after 8 weeks of treatment (TZP: 10 nmol/kg, saline: 0.1 mL, i.p., weekly). At 24 h post-final dose, mice were anesthetized (xylazine 8 mg/kg, ketamine 140 mg/kg, i.p.). Plasma was collected via cardiac puncture (0.5 mL, heparinized tubes) and centrifuged (3,000 × g, 10 min, 4 °C). The right cerebral hemisphere was harvested, rinsed in cold saline, weighed, and homogenized in 1 mL PBS with 1% protease inhibitor. Homogenates were centrifuged (10,000 × g, 15 min, 4 °C). TZP was quantified by LC-MS/MS using a Shimadzu LC-20AD system and AB Sciex QTRAP 5500. Samples were diluted 1:10 in acetonitrile with internal standard (semaglutide-d6, 10 ng/mL), separated on a C18 column (2.1 × 100 mm, 1.8 μm), and detected via multiple reaction monitoring (MRM). Calibration curves (0.1–100 ng/mL, r² > 0.99) ensured linearity. Kp, brain was calculated as [TZP]brain (ng/mL, converted from ng/g)/[TZP]plasma (ng/mL). Sham and MCAO groups (no TZP) served as controls. Liraglutide’s Kp, brain was cited from the literature (Rhea et al. [2024]).

HBMVECs [2] = assay: FITC-dextran permeation across OGD/R-challenged HBMVECs; format: cell-based, human
Protocol: HBMVECs were sourced from ATCC (USA). These cells were cultivated in a medium specifically designed for endothelial cultures, enriched with 10% FBS, and maintained in an incubator set at a temperature of 37 °C with 5% CO2. For OGD/R modeling, the culture medium was replaced with a serum-free, glucose-free medium, and then it was placed in a hypoxic environment (1% O2, 5% CO2, 94% N2) at a 37 °C incubator for 10 h. After 10 h, the normal medium containing serum was added, and the normal oxygen supply was restored. The cells were then kept in a 37 °C constant temperature incubator for 24 h of reoxygenation. To silence C/EBP-α, HBMVECs were transduced with adenovirus harboring a short hairpin RNA (shRNA) specifically designed to knock down C/EBP-α (Ad-viral sh-C/EBP-α) for 48 h. A serum-free medium was used to dilute FITC-dextran to various concentrations for the establishment of a calibration curve. Subsequently, HBMVECs were cultured in the upper section of the Transwell setup. Thereafter, 100 µL of a 1 mg/mL FITC-conjugated dextran solution was added to the upper section and allowed to rest for 1 h in a shielded environment at 37 °C with 5% CO2. Post incubation, 100 µL of fluid was drawn from the lower section, and the luminescence intensity of the fluid in the lower section was quantified using a luminescence photometer (494/520 nm). Regarding the calibration curve and the observed luminescence intensity, the permeation level of FITC-dextran across the Transwell chamber was computed (µg/mL).

HBMVECs [3] = assay: TEER of OGD/R-challenged HBMVECs; format: cell-based, human
Protocol: HBMVECs were sourced from ATCC (USA). These cells were cultivated in a medium specifically designed for endothelial cultures, enriched with 10% FBS, and maintained in an incubator set at a temperature of 37 °C with 5% CO2. For OGD/R modeling, the culture medium was replaced with a serum-free, glucose-free medium, and then it was placed in a hypoxic environment (1% O2, 5% CO2, 94% N2) at a 37 °C incubator for 10 h. After 10 h, the normal medium containing serum was added, and the normal oxygen supply was restored. The cells were then kept in a 37 °C constant temperature incubator for 24 h of reoxygenation. To silence C/EBP-α, HBMVECs were transduced with adenovirus harboring a short hairpin RNA (shRNA) specifically designed to knock down C/EBP-α (Ad-viral sh-C/EBP-α) for 48 h. Approximately 100,000 cells were nurtured in the upper section of the Transwell device. Once the cells had bonded to the container surfaces, TEER values across each group were determined utilizing an impedance meter (Millipore, United States) after 24 h.

CC[C@H](C)[C@H](NC(=O)[C@H](CC(C)C)NC(=O)[C@H](Cc1c[nH]c2ccccc12)NC(=O)[C@H](CCC(N)=O)NC(=O)[C@@H](NC(=O)[C@H](Cc1ccccc1)NC(=O)[C@H](C)NC(=O)[C@H](CCCCNC(=O)COCCOCCNC(=O)COCCOCCNC(=O)CC[C@H](NC(=O)CCCCCCCCCCCCCCCCCCC(=O)O)C(=O)O)NC(=O)[C@H](CCC(N)=O)NC(=O)[C@H](C)NC(=O)[C@@H](NC(=O)[C@H](CCCCN)NC(=O)[C@H](CC(=O)O)NC(=O)[C@H](CC(C)C)NC(=O)C(C)(C)NC(=O)[C@@H](NC(=O)[C@H](CO)NC(=O)[C@H](Cc1ccc(O)cc1)NC(=O)[C@H](CC(=O)O)NC(=O)[C@H](CO)NC(=O)[C@@H](NC(=O)[C@H](Cc1ccccc1)NC(=O)[C@@H](NC(=O)CNC(=O)[C@H](CCC(=O)O)NC(=O)C(C)(C)NC(=O)[C@@H](N)Cc1ccc(O)cc1)[C@@H](C)O)[C@@H](C)O)[C@@H](C)CC)[C@@H](C)CC)C(C)C)C(=O)N[C@@H](C)C(=O)NCC(=O)NCC(=O)N1CCC[C@H]1C(=O)N[C@@H](CO)C(=O)N[C@@H](CO)C(=O)NCC(=O)N[C@@H](C)C(=O)N1CCC[C@H]1C(=O)N1CCC[C@H]1C(=O)N1CCC[C@H]1C(=O)N[C@@H](CO)C(N)=O [TZP, Tirzepatide]
BBB permeability (14C-sucrose), relative to Sham = 100 ([1]; MCAO + TZP, WT mice): 141.9% | BBB permeability (14C-sucrose), relative to Sham = 100 ([1]; TZP-treated MCAO C/EBP-α-/- mice): 205.7% | 14C-sucrose influx rate (Ki), right cerebral hemisphere ([1]; MCAO + TZP group (10 nmol/kg i.p. weekly, 8 weeks), MCAO 2.582 ± 0.156, P < 0.005 vs. MCAO): 1.447 ± 0.103 µL/g/min | 14C-sucrose influx rate (Ki), right cerebral hemisphere ([1]; TZP group (sham-operated, 10 nmol/kg i.p. weekly, 8 weeks), Sham 1.00 ± 0.028, P = 0.89 vs. Sham): 0.995 ± 0.032 µL/g/min | tissue level at time at 24 h (in vivo; Brain concentration of TZP): 9.6 ± 1.2 ng/g | level at 24 h (in vivo; Plasma concentration of TZP): 80.2 ± 10.1 ng/mL | FITC concentrations in the lower chamber (FITC-dextran permeation) (HBMVECs [2]; OGD/R + 50 nM TZP, 24 h, control 0.41, OGD/R 1.15, Fig. 6A): 0.83 mg/mL | FITC concentrations in the lower chamber (FITC-dextran permeation) (HBMVECs [2]; OGD/R + 100 nM TZP, 24 h, control 0.41, OGD/R 1.15, Fig. 6A): 0.57 mg/mL | FITC concentrations in the lower chamber (FITC-dextran permeation) (HBMVECs [2]; sh-C/EBP-α experiment, OGD/R + TZP (100 nM), control 0.42, OGD/R 1.03, Fig. 9B): 0.61 mg/mL | FITC concentrations in the lower chamber (FITC-dextran permeation) (HBMVECs [2]; sh-C/EBP-α experiment, OGD/R + sh-C/EBP-α + TZP (100 nM), control 0.42, OGD/R 1.03, Fig. 9B): 0.93 mg/mL | TEER values (HBMVECs [3]; OGD/R + 50 nM TZP, 24 h, control 191.3, OGD/R 115.3, Fig. 6B): 145.3 Ω.cm² | TEER values (HBMVECs [3]; OGD/R + 100 nM TZP, 24 h, control 191.3, OGD/R 115.3, Fig. 6B): 172.9 Ω.cm² | TEER values (HBMVECs [3]; sh-C/EBP-α experiment, OGD/R + TZP (100 nM), control 187.4, OGD/R 113.5, Fig. 9C): 175.6 Ω.cm² | TEER values (HBMVECs [3]; sh-C/EBP-α experiment, OGD/R + sh-C/EBP-α + TZP (100 nM), control 187.4, OGD/R 113.5, Fig. 9C): 138.2 Ω.cm²
